In US10369167B2, “Continuously expressed therapeutic RNAs for targeted protein binding and methods for their use” (priority 2016, dated 2019):
Values joined by “and” are separate entries in the source; they are usually repeats but may differ in a detail not shown here. Identical values can stand only once.

What was measured:
[1] = tested on: HIV-1 Ba-L strain; assay: HIV challenge of stable Ghost3 (Ghost3+CXCR4+CCR5) cells, P24 assay; assay type: cell-based
Description: Ghost 3+CXCR4+CCR5 cells, HIV NL4-3 and Ba-L strains were obtained from the NIH AIDS Reagent Program. Ghost cells and HEK293 cells (ATCC CRL-1573) were grown on DMEM supplemented with 10% FBS and 1 mM Glutamine. CCRF-CEM (ATCC CRM-CCL-119) cells were grown in RPMI supplemented with 10% FBS and 1 mM Glutamine. HEK293 and Ghost cells were transfected with Lipofectamine 2000 according to the manufacturer's protocol (ThermoFisher, Waltham, Mass., USA). To generate stable HEK293 cell lines, 2 million cells were transfected with pJR255-based plasmids that express aptamers alone, shLuc, or shLuc-aptamer fusions. Transfected cells were selected with G418 (Gold Biotechnology, St. Louis, Mo., USA) for 10 to 14 days, followed by Fluorescent Activated Cell Sorting (FACS) to isolated mCherry positive cells. Typically, the brightest 10 to 30% of cells were collected. Second FACS was performed 7 to 10 days after the first sort to isolate stable cell populations. […] Ghost cells were already G418 resistant, therefore, no selection step was performed. 0.5M cells were transfected with pJR255 based plasmids that express shLuc, aptamer alone or shLuc-aptamer fusions. Transfected cells were sorted 7 days after transfection. Compared to HEK293 cells, the percentage of mCherry positive cells was much lower because no drug selection was applied. Typically, the brightest 5 to 10% of cells were collected. A second sort was performed 14 days later. If a decrease in mCherry signal was observed, a third sort was performed.
(§1) For the lentivirus challenge, 5×10^4 HEK293 cells stably expressing the aptamer alone, the shRNA alone or the shRNA-aptamer fusions were transduced with HIV7-GFP lentivirus particles at an MOI of 0.3 in 500 μl cell culture medium. Cells were harvested 10 days post-transduction and analyzed by FACS. For an initial HIV challenge, 5×10^4 Ghost(3)X4/R5 cells stably expressing shRNA alone or shRNA-aptamer fusions were infected with HIV-1 Ba-L strain at an MOI of 0.02 in 500 μl medium. The HIV concentration of cells in culture was determined using a P24 assay with an Alliance HIV-1 P24 ELISA kit. (PerkinElmer, Waltham, Mass., USA). For a long term HIV challenge, 1×10^5 CCRF-CEM cells stably expressing shRNA or shRNA-aptamer fusions were infected with HIV-1 NL4-3 viruses at MOI of 0.02 in 500 μl medium. […]
To test if the shRNA-fusions can exert inhibition during subsequent infection cycles using replication competent HIV, stable Ghost3+CXCR4+CCR5 cell lines expressing the shLuc alone and the shLuc-S1R1, shLuc-S3R1 and shLuc-53R3 fusions were generated (abbreviated as Ghost3 cells in following text) (Morner, et al., 1999). […] The HIV concentration in cultures was monitored by P24 assay for 9 days.

[2] = tested on: HIV; conditions: 10% FBS cell culture; cited from earlier work
[3] = target: T1, HIS tagged HIV-1 Integrase (HIS-IN) (Human immunodeficiency virus type 1 group M subtype B, UniProt P12497, C1427S/F1332K); assay type: binding
T1 construct: HIS tagged HIV-1 Integrase (HIS-IN) expression vector; made in house; host or cells: E. coli strain C3016
Description: The gel mobility shift assay was carried out as described (Zhou, et al, 2009). RNA aptamers were transcribed from annealed oligonucleotide pairs (Table 1) containing T7 promoter sequences using Megashortscript T7 transcription kit (Thermofisher Scientific, Waltham, Mass., USA). Percentage binding was determined by Image J (http://imagej.nih.gov/ij/index.html). ^32P labeled and folded aptamers (final concentration of 2 nM) were incubated with HIS-IN protein (final concentration of 0, 20, 40, 80, 160 and 320 nM) at 37° C. for 30 min. The complexes were then separated by 5% native polyacrylamide gel. Autoradiographs were acquired via Typhoon phosphorimaging system (GE Healtcare Life Science, Pittsburgh Pa. 15264, USA). Digital images were imported and analyzed by ImageJ software (http://imagej.nih.gov/ij/index.html). 50 percent binding values were determined by the Prism 6 software (GraphPad Software Inc) using non-linear curve regression. Northern analysis of total or fractionated RNAs was carried out as described (Castanott, et al., 2009) using probes listed in primer list (Table 1). Quantification of relative band intensity was measured and calculated using Image J software.

[4] = tested on: HIV7-GFP lentivirus; assay: Single cycle lentivirus HIV7-GFP challenge of stable HEK293 cells, FACS; assay type: cell-based, HIV; conditions: aptamer alone expressed directly from U6 promoter, HEK293, MOI 0.3, FACS 10 days after transduction
Source text: A direct functional assay was used to test the inhibitory effect of the aptamer candidates for combinational gene therapy in T cells or hematopoietic stem cells (HSC). To this end, plasmids (pJR255) consisting of: 1) a U6 promoter for inducing the expression of the aptamers, 2) a G418 resistant cassette for selection, and 3) an mCherry marker for cell purification and functional analysis were generated. (FIG. 11). RNAs expressed from U6 (pol III) promoter lack nucleus export signals and stay in the nucleus (18,19,20,21). Integrase functions primarily in the nucleus. […] Each population of cells was transduced with lentiHIV particles at an MOI of 0.3. The transduced cells were analyzed by FACS 10 days after transduction to minimize the effects of GFP from nonintegrated viral DNA. If an aptamer exerts any inhibition of HIV integrase, the percentage of GFP and mCherry double-positive cells should be reduced compared to the control.
For the lentivirus challenge, 5×10^4 HEK293 cells stably expressing the aptamer alone, the shRNA alone or the shRNA-aptamer fusions were transduced with HIV7-GFP lentivirus particles at an MOI of 0.3 in 500 μl cell culture medium. Cells were harvested 10 days post-transduction and analyzed by FACS. […] The HIV concentration of cells in culture was determined using a P24 assay with an Alliance HIV-1 P24 ELISA kit. […]

[5] = tested on: firefly luciferase; assay: Luciferase assay in HEK293 clone stably expressing firefly luciferase; assay type: cell-based; conditions: U6 driven shLuc or shLuc-aptamer fusion, Day 2 or Day 3 after transfection
Description: A HEK293 cell clone stably expressing firefly luciferase was transfected with the plasmids expressing the shLuc or the shLuc-aptamer fusions. Cells were harvested two or three days post-transfection and their firefly luciferase activities were determined by the Luciferase Assay System (Promega, Madison, Wis., USA).
Using a luciferase assay, export of the shRNA-aptamer fusion into the cytoplasm was tested. […] (FIG. 4B). […] Northern blot analyses on fractionated samples were performed to further assess the distribution and processing of the shLuc-aptamer fusion.

[6] = tested on: HIV-1 NL4-3; assay: Long term HIV challenge of stable CCRF-CEM cells, p24 assay; assay type: cell-based; conditions: pNL4-3 MOI 0.01, monitored six weeks
Description: To generate stable CCRF-CEM cell lines, 2 million cells were transfected with […]-based plasmids, that express shLuc, shLuc-S1R1, shLuc-S3R1 and shLuc-S3R3, by electroporation using the Nucleofactor kit according to the manufacturer's protocol (Lonza, Basel, Switzerland). G418 selection and FACS were performed similar to that of HEK293 cells.
as §1, with “USA).” for “USA). For a long term HIV challenge, 1×10^5 CCRF-CEM cells stably expressing shRNA or shRNA-aptamer fusions were infected with HIV-1 NL4-3 viruses at MOI of 0.02 in 500 μl medium.”
The long-term efficacy of shRNA-aptamer fusions in CD4 positive T cells was tested using CEM cells stably expressing shLuc, shLuc-S3R3, shS1 or shS1-S3R3. […] HIV concentrations were monitored for six weeks by p24 assay (FIG. 8). […] In summary, anti-integrase aptamer expressed as an shRNA-aptamer fusion can confer long term resistance to HIV-1 replication in T cells. […]

[7] = Human immunodeficiency virus 1, BAL, 216 h, read-out: inhibition of HIV replication

## Cc1nnc(C(=O)NC(C)(C)c2nc(C(=O)NCc3ccc(F)cc3)c(O)c(=O)n2C)o1 [Raltegravir, reference compound]
[1]; [7]
  inhibition at 0.002 µM: 96%
  inhibition at 0.02 µM: > 99%
[2]
  IC50: 2 nM
  IC95: 20 nM

## S3R3: anti-HIV integrase RNA aptamer; variable region CGTCGTATGCTGCGCCATGGGGTGGACTG (SEQ ID NO:5) (variable region only, further chemistry not given here)
[3]; 2 nM 32P labeled aptamer, HIS-IN 0-320 nM, 37° C. 30 min, read-out: binding affinity to HIS-IN (50 percent binding value)
  Kd: 47 nM
[3]; gel shift
  binding affinity to HIS-IN compared to S1R1: higher binding affinity
[1]; Ba-L, Ghost3 cells, p24 monitored for 9 days
  HIV inhibition, in words: weaker than a low dose of Raltegravir
[4]
  inhibition of HIV-7GFP integration: did not inhibit

B1: S3R1: anti-HIV integrase RNA aptamer, oligos JRO502/JRO503 (SEQ ID NO: 15, 16) (nucleic acid)
DNA 1: CACCGCGGGCCCTAGACGCGCTGCCGTGGAGGAGGAGGTTGGTGGCGCGAGAGGTG
DNA 2: AAAACACCTCTCGCGCCACCAACCTCCTCCTCCACGGCAGCGCGTCTAGGGCCCGC
modifications: listed as DNA, chemistry not fully specified; the letters are possibly those of the target site
[4]
  inhibition of HIV-7GFP integration: did not inhibit

B2: shLuc: U6 promoter driven shRNA targeting luciferase with an artificial 10 bases loop (nucleic acid)
chain 1: CACCGCTTACGCTGAGTACTTCGAAATTGAAGCTTGTTTCGAAGTACTCAGCGTAAG
chain 2: AAAACTTACGCTGAGTACTTCGAAACAAGCTTCAATTTCGAAGTACTCAGCGTAAGC
modifications: the letters are possibly those of the target site
notes: U6 promoter driven shRNA targeting luciferase with an artificial 10 bases loop
[5]
  inhibition of luciferase activity: slightly stronger

B3: shLuc-S3R3: shLuc-aptamer fusion with integrase aptamer S3R3 (SEQ ID NO: 23, 24) (nucleic acid)
DNA 1: CACCGCTTACGCTGAGTACTTCGAAACAAGGAGGACGATGCGGGCCGTCGTATGCTGCGCCATGGGGTGGACTGGGTGGCGCGAAGTTCGAAGTACTCAGCGTAAG
DNA 2: AAAACTTACGCTGAGTACTTCGAACTTCGCGCCACCCAGTCCACCCCATGGCGCAGCATACGACGGCCCGCATCGTCCTCCTTGTTTCGAAGTACTCAGCGTAAGC
modifications: expressed or natural sequence; the letters are possibly those of the target site
[6]
  viral concentration (p24) relative to control (shLuc): more than three orders of magnitude lower
[1]; Ghost3 cells expressing shRNA or shRNA-aptamer fusion, Ba-L MOI 0.02, Day 9
  inhibition of HIV replication (relative P24 concentration compared to shLuc control): ~85% and 78%
